According to patent US20080096807A1, “Cyclic vasoactive intestinal peptide receptor-2 agonists” (priority 2006, published 2008):
Numbered stars: 1 amine (or outer) side, 2 acyl side, 3 side chain; on linkers, the order of the positions; unused ones are H or OH. Bridge positions count the residues as written; N and C are the ends. Square brackets hold non-standard residues; d marks the D form. Peptide text beside a SMILES is read from it. ξ: configuration not given here. X1 = N=C(N)CNCC[C@H](N[*:1])C(=O)[*:2]; Thr(3ξ) = CC(O)[C@H](N)C(=O)O; Nle = CCCC[C@H](N)C(=O)O

Assays:
[1] = test system: LPS-induced lung inflammation in male C57BL/6 mice; test: LPS-induced lung inflammation in male C57BL/6 mice (BAL neutrophilia); format: in vivo; conditions: BAL fluid neutrophilia
Description: C57bl/6 mice are pretreated with vehicle or drug prior to an aerosol expose to lipopolysacchride (LPS, 500 μg/ml in sterile saline) for 15-30 minutes. The aerosol is generated by a Pari Ultra neb jet nebulizer, the outlet of which is connected to a small clear plastic chamber [H×W×D, 10.7×25.7×11 cm (4×10×4.5 in)] containing the animals. Bronchoalveolar lavage (BAL) is performed 24 hr later to determine the intensity of cell inflammation. BAL procedure is performed as described below.
Mice are pretreated with vehicle or drug prior to an intranasal administration of lipopolysacchride (0.05-0.3 mg/kg in sterile saline; 50 μl total volume, 25 μl/nostril). Intranasal administration is performed by presenting small droplets of the dosing solution at the nostril using a 25-50 μl eppendorff pipet. BAL is performed 3 to 24 h post LPS challenged as described above to determine the intensity of cell inflammation.
24 h following LPS exposure, animals are anesthetized with pentobarbital (80-100 mg/kg, i.p.), ketamine/xyzaline (80-120 mg/kg/2-4 mg/kg, i.p.) or urethane (1.5-2.4 g/kg, i.p.); and through a small midline neck incision (15-20 mm), the trachea is exposed and cannulated with 20-gauge tubing adapter. Lungs are lavaged with 2×1 ml sterile Hank's balanced salt solution without Ca++ and Mg++(HBSS). Lavage fluid is recovered after 30 sec by gentle aspiration and pooled for each animal. Samples are then centrifuged at 2000 rpm for 10 minutes at 5° C. Supernatant is aspirated, and red blood cells are lysed from the resulting pellet with 0.5 ml distilled water for 30 sec before restoring osmolarity to the remaining cells by the addition of 5 ml of HBSS. Samples are recentrifuged at 2000 rpm for 10 minutes at 5° C. and supernatant aspirated. The resulting pellet is resuspended in 1 ml of HBSS. Total cell number is determined by Trypan Blue (Sigma Chemical, St. Louis, Mo.) exclusion from an aliquot of cell suspension using a hemocytometer or coulter counter. For differential cell counts, an aliquot of the cell suspension is centrifuged in a Cytospin (5 min, 1300 rpm; Shandon Southern Instruments, Sewickley, Pa.) and the slides fixed and stained with a modified Wright's stain (Hema 3 stain kit, Fisher Scientific). Standard morphological criteria is used in classifying at least 300 cells under light microscopy. Data in Table 3 is expressed as BAL cells×10^4/animal for neutrophils and total cells, or percent inhibition of the LPS induced BAL fluid neutrophilia response.

VPAC2 receptor = molecular target: T1, VPAC2 receptor (Homo sapiens, UniProt P41587); test: Sup-T1 cAMP agonist assay; format: cell-based; conditions: human T-lymphoid cell line Sup-T1 expressing VPAC2 receptor; cAMP EIA; 5 min at room temperature; read-out: Sup-T1 cAMP EC50
T1 construct: The human T-lymphoid cell line Sup-Ti, which expresses the VPAC2 receptor; host or cells: Sup-T1 (Sup-Ti [sic]) human T-lymphoid cell line
T1 sequence (P41587 24-438): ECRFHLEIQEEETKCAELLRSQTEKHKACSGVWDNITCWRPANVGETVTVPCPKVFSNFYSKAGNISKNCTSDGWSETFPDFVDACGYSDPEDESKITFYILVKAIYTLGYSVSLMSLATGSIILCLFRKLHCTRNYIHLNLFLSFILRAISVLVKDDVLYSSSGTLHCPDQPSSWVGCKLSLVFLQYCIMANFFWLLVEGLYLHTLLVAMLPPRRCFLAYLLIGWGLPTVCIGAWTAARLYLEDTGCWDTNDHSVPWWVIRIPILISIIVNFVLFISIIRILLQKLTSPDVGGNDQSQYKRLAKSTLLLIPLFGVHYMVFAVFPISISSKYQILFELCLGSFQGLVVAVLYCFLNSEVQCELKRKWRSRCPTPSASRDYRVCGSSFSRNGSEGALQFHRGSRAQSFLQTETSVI
Description: The human T-lymphoid cell line Sup-Ti, which expresses the VPAC2 receptor, was obtained from the American Type Culture Collection (ATCC, CRL-1942) and maintained in growth medium at densities between 0.2 and 2×10^6 cells/ml in a 37° C. CO2 incubator. The growth medium was RPMI 1640 (Invitrogen) supplemented with 25 mM HEPES buffer and 10% fetal bovine serum (Gemini Bioproducts).
To evaluate VPAC2 agonist compound activity, cells in log-phase growth were washed once with growth medium at room temperature and plated into 96-well plates at a density of 4×10^4 cells per well in 150 uL of growth medium. Fifty uL of the compounds to be tested, prepared at appropriate concentrations in growth medium, were then added to designated wells. After 5 min at room temperature, the cells were lysed by adding 25 uL of lysis reagent 1A (cAMP Biotrak EIA system, Amersham Biosciences, RPN225) to each well. The 96-well plates were kept at room temperature for 10 min with shaking and then stored at 4° C. until analysis for cAMP (within 2 hr).
Cyclic AMP levels were determined in 100 uL of each lysate using the cAMP Biotrak Enzymeimmunoassay (EIA) kit according to the manufacture's instructions (Amersham Biosciences, RPN225). The activity of each VPAC2 agonist compound (EC50 value) was estimated by fitting the 7-concentration dose response data to a sigmoidal dose-response equation provided by the GraphPad Prism program (GraphPad Software, Inc.).

[2] = molecular target: T2, human neutrophil elastase (Homo sapiens, UniProt P08246); test: Peptide stability to neutrophil elastase (RP HPLC ESI MS); conditions: halftime with human neutrophil elastase 1 to 2 μg/mL in PBS, ambient temperature, normalized to halftime of the reference standard
T2 sequence (P08246 30-247 limits assumed): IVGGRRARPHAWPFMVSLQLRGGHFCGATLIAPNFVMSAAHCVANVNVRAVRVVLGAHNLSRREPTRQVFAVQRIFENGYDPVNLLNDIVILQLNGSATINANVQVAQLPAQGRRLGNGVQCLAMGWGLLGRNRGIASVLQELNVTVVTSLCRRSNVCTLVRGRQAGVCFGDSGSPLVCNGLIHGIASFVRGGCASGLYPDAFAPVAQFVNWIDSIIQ
Description: The proteolytic stabilities of peptide analogs were established with reversed phase high pressure liquid chromatography (RP HPLC) electrospray ionization mass spectrometry (ESI MS). Peptide analogs were incubated with human neutrophile elastase and the quantity of undigested analogs was determined by ESI MS at appropriate time points. Multiple peptide analogs could be included in one experiment as long as they could be differentiated by HPLC retention time and/or by molecular weight. Ac-His Ac-[sequence]Nle-[sequence]NH2 was used in all experiments as a control and as a reference standard. The simultaneous use of multiple peptide analogs together with a reference standard allowed for compensation for variations in the proteolytic fidelity of the enzyme over the multiple experiments. Integrated ion currents obtained for the individual undigested peptide were used for quantitation. For calculation of halftime first-order kinetic behavior was assumed and all calculations were normalized to the halftime of the reference standard.
Peptide stock solutions were prepared in water to a concentration of 2.5 mg/mL. Unless in use, all stock solutions were kept at −20° C. […] Concentrations of the peptide analogs were adjusted accordingly. In order to do the proteolytic digestion, peptides were dissolved in phosphate buffered saline (PBS) to a concentration of 0.1 mg/mL. As many as six different peptide analogs were mixed into one 50 μL reaction volume. The reference standard was added to all experiments as a reference and internal standard. Elastase (Human Neutrophil, Calbiochem, Cat # 324681) was added from an elastase stock solution to a concentration of 1 to 2 μg/mL. Different amounts of the enzyme were chosen to compensate for the differences in the proteolytic stabilities of the peptide analogs. Previously, a stock solution of elastase was prepared in water at a concentration of 1 mg/mL. Small aliquots of the enzyme stock solution were kept at −20° C. to better maintain the enzyme activity by limiting the number of thaw and freeze cycles.
The digestion was done at ambient temperature in an autosampler tube within the autosampler of the HPLC system (Agilent 1100 Series). For a time course, 5 μL aliquots were injected in 70 minute intervals onto the reversed phase HPLC column (Phenomenex, Luna C18, 3μ, 100 ↑, 150×2.00 mm). For the starting time point an aliquot was injected just prior to the addition of the proteolytic enzyme. A total of eight time points could be recorded from one experiment, including the starting point. Peptides were separated on the reversed phase column with a 50 minute gradient of 5% to 30% organic phase. The aqueous phase was 0.05% (v/v) of trifluoroacetic acid in water and the organic one was 0.045% (v/v) of trifluoroacetic acid in acetonitrile. Absorbances were recorded at 214 and 280 nm respectively. All of the column effluent was introduced into the turbo V source of the electrospray ionization mass spectrometer (ABI 4000 QTrap LC/MS/MS System). Mass spectra were acquired in Q3MS mode in a mass range to include all triply charged ions of the non degraded peptide analogs. Care was taken to assure that peptide analogs could clearly be differentiated either by the chromatographic retention time or by the difference in molecular weight. Relative quantities of the respective undigested peptide analog were calculated from the integrated total ion current. A window of 2.5 Da was chosen and the manufacturer's software was used to integrate the individual ion currents. The overall halftime of an individual peptide analog was calculated by assuming first-order kinetic behavior and was normalized with respect to the halftime of the reference standard.

SMILES | Inhibition of LPS-induced neutrophilia ([1]; Dose 0.01%) | EC50 (VPAC2 receptor) | Relative elastase stability [2] | Inhibition of LPS-induced neutrophilia ([1]; Dose 0.1%)
CCCC[C@H](NC(=O)[C@H](CCNCC(=N)N)NC(=O)[C@H](CCCCN)NC(=O)[C@H](CCCNC(=N)N)NC(=O)[C@H](CC(C)C)NC(=O)[C@H](CCCCN)NC(=O)[C@@H](NC(=O)[C@H](Cc1ccc(O)cc1)NC(=O)[C@H](CC(N)=O)NC(=O)[C@H](CCC(=O)O)NC(=O)[C@@H](NC(=O)[C@H](Cc1ccccc1)NC(=O)[C@H](CO)NC(=O)[C@H](C)NC(=O)[C@H](CC(=O)O)NC(=O)[C@H](CO)NC(=O)[C@H](Cc1c[nH]cn1)NC(C)=O)C(C)O)C(C)O)C(=O)N[C@@H](C)C(=O)N[C@@H](C)C(=O)N[C@@H](CCCCN)C(=O)N[C@H]1CCCCNC(=O)C[C@@H](C(=O)N[C@@H](CC(C)C)C(=O)N[C@@H](CCCCN)C(=O)N[C@@H](CCCCN)C(=O)NCC(=O)NCC(=O)N[C@H](C(N)=O)C(C)O)NC(=O)[C@H](CC(N)=O)NC(=O)[C@H](CC(C)C)NC(=O)[C@H](Cc2ccc(O)cc2)NC1=O (stereo partly drawn) [Example 13] (Ac-HSDASF[Thr(3ξ)]ENY[Thr(3ξ)]KLRK[X1][Nle]AAKKYLNDLKKGG[Thr(3ξ)]-NH2; lactam 21-25) | ++ (++ >30%) | 0.0176 µM | 1.7 | 
CCCC[C@H](NC(=O)[C@H](CCC(N)=O)NC(=O)[C@H](CCCCN)NC(=O)[C@H](CCCNC(=N)N)NC(=O)[C@H](CC(C)C)NC(=O)[C@H](CCCCN)NC(=O)[C@@H](NC(=O)[C@H](Cc1ccc(O)cc1)NC(=O)[C@H](CC(N)=O)NC(=O)[C@H](CCC(=O)O)NC(=O)[C@@H](NC(=O)[C@H](Cc1ccccc1)NC(=O)[C@H](CO)NC(=O)[C@H](C)NC(=O)[C@H](CC(=O)O)NC(=O)[C@H](CO)NC(=O)[C@H](Cc1c[nH]cn1)NC(C)=O)C(C)O)C(C)O)C(=O)N[C@@H](CCC(=O)O)C(=O)N[C@@H](C)C(=O)N[C@@H](CCCCN)C(=O)N[C@H]1CCCCNC(=O)C[C@@H](C(=O)N[C@@H](CC(C)C)C(=O)N[C@@H](CCCCN)C(=O)N[C@@H](CCCCN)C(=O)NCC(=O)NCC(=O)N[C@H](C(N)=O)C(C)O)NC(=O)[C@H](CC(N)=O)NC(=O)[C@H](CC(C)C)NC(=O)[C@H](Cc2ccc(O)cc2)NC1=O (stereo partly drawn) [Example 7] (Ac-HSDASF[Thr(3ξ)]ENY[Thr(3ξ)]KLRKQ[Nle]EAKKYLNDLKKGG[Thr(3ξ)]-NH2; lactam 21-25) | ++ (++ >30%) | 0.632 µM | 16.4 | 
CCCC[C@H](NC(=O)[C@H](CCCNC(=N)N)NC(=O)[C@H](CCCCN)NC(=O)[C@H](CCCNC(=N)N)NC(=O)[C@H](CC(C)C)NC(=O)[C@H](CCCCN)NC(=O)[C@@H](NC(=O)[C@H](Cc1ccc(O)cc1)NC(=O)[C@H](CC(N)=O)NC(=O)[C@H](CCC(=O)O)NC(=O)[C@@H](NC(=O)[C@H](Cc1ccccc1)NC(=O)[C@H](CO)NC(=O)[C@H](C)NC(=O)[C@H](CC(=O)O)NC(=O)[C@H](C)NC(=O)[C@H](Cc1c[nH]cn1)NC(C)=O)C(C)O)C(C)O)C(=O)N[C@@H](CCC(=O)O)C(=O)N[C@@H](C)C(=O)N[C@@H](CCCCN)C(=O)N[C@H]1CCCCNC(=O)C[C@@H](C(=O)N[C@@H](CC(C)C)C(=O)N[C@@H](CCCCN)C(=O)N[C@@H](CCCCN)C(=O)NCC(=O)NCC(=O)N[C@H](C(N)=O)C(C)O)NC(=O)[C@H](CC(N)=O)NC(=O)[C@H](CC(C)C)NC(=O)[C@H](Cc2ccc(O)cc2)NC1=O (stereo partly drawn) [Example 17] (Ac-HADASF[Thr(3ξ)]ENY[Thr(3ξ)]KLRKR[Nle]EAKKYLNDLKKGG[Thr(3ξ)]-NH2; lactam 21-25) | + (+ 10-30%) | 0.0233 µM | 4.6 | 
CCCC[C@H](NC(=O)[C@H](CCC(N)=O)NC(=O)[C@H](CCCCN)NC(=O)[C@H](CCCNC(=N)N)NC(=O)[C@H](CC(C)C)NC(=O)[C@H](CCCCN)NC(=O)[C@@H](NC(=O)[C@H](Cc1ccc(O)cc1)NC(=O)[C@H](CC(N)=O)NC(=O)[C@H](CCC(=O)O)NC(=O)[C@@H](NC(=O)[C@H](Cc1ccccc1)NC(=O)[C@H](CO)NC(=O)[C@H](C)NC(=O)[C@H](CC(=O)O)NC(=O)[C@H](CO)NC(=O)[C@H](Cc1c[nH]cn1)NC(C)=O)C(C)O)C(C)O)C(=O)N[C@@H](C)C(=O)N[C@@H](C)C(=O)N[C@@H](CCCCN)C(=O)N[C@H]1CCCCNC(=O)C[C@@H](C(=O)N[C@@H](CC(C)C)C(=O)N[C@@H](CC(C)C)C(=O)N[C@@H](CCCCN)C(=O)NCC(=O)NCC(=O)N[C@H](C(N)=O)C(C)O)NC(=O)[C@H](CC(N)=O)NC(=O)[C@H](CC(C)C)NC(=O)[C@H](Cc2ccc(O)cc2)NC1=O (stereo partly drawn) [Example 8] (Ac-HSDASF[Thr(3ξ)]ENY[Thr(3ξ)]KLRKQ[Nle]AAKKYLNDLLKGG[Thr(3ξ)]-NH2; lactam 21-25) |  | 0.0114 µM | 3.5 | ++ (++ >30%)
CCCC[C@H](NC(=O)[C@H](CCC(N)=O)NC(=O)[C@H](CCCCN)NC(=O)[C@H](CCCNC(=N)N)NC(=O)[C@H](CC(C)C)NC(=O)[C@H](CCCCN)NC(=O)[C@@H](NC(=O)[C@H](Cc1ccc(O)cc1)NC(=O)[C@H](CC(N)=O)NC(=O)[C@H](CCC(=O)O)NC(=O)[C@@H](NC(=O)[C@H](Cc1ccccc1)NC(=O)[C@H](CO)NC(=O)[C@H](C)NC(=O)[C@H](CC(=O)O)NC(=O)[C@H](CO)NC(=O)[C@H](Cc1c[nH]cn1)NC(C)=O)C(C)O)C(C)O)C(=O)N[C@@H](C)C(=O)N[C@@H](C)C(=O)N[C@@H](CCCCN)C(=O)N[C@H]1CCCCNC(=O)C[C@@H](C(=O)N[C@@H](CC(C)C)C(=O)N[C@@H](CC(C)C)C(=O)N[C@@H](CC(N)=O)C(=O)NCC(=O)NCC(=O)N[C@H](C(N)=O)C(C)O)NC(=O)[C@H](CC(N)=O)NC(=O)[C@H](CC(C)C)NC(=O)[C@H](Cc2ccc(O)cc2)NC1=O (stereo partly drawn) [Example 11] (Ac-HSDASF[Thr(3ξ)]ENY[Thr(3ξ)]KLRKQ[Nle]AAKKYLNDLLNGG[Thr(3ξ)]-NH2; lactam 21-25) | ++ (++ >30%) | 0.0168 µM | 2.4 | 
